# Results as given in patent US11091511B2, “Panaxdiol-type ginsenoside derivative, preparation method therefor and use thereof” (ARMY MEDICAL UNIVERSITY, priority 2016, dated 2021).
# Marks after values point to notes of the source that are not given here.
# Key:
# RAW264.7 cells = assay: RAW264.7 cell survival rate by CCK8 method; assay type: cell-based, mouse; conditions: compound 10 prnol/L, 0.1% DMSO, CCK8, x ± s, n = 3, normal saline control = 1
# Procedure, shortened: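 Mouse macrophage RAW264.7 cells exposed to compounds at 10 […] in medium containing 0.1% DMSO final, alongside a 0.1% DMSO saline control. Survival measured by CCK8, given as x±s, with groups compared by one-way ANOVA (p<0.05).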
# [1] = system: RAW264.7 cell-derived foam cells; assay: Formation of RAW264.7 cell-derived foam cells (ox-LDL, oil red O, absorbance 490 nm); assay type: cell-based, mouse; conditions: 48 hours, model group = 100%, x ± s, n = 3
# Procedure, shortened: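 RAW264.7 foam cells, induced with 60 mg/L ox-LDL for 48 h, were treated 48 h with compound at 10 or 30 μmol/L in saline, in triplicate wells. Lipid was stained with oil red O, extracted in isopropanol and read at 490 nm. Values are cell-number-corrected lipid content as % of the model group.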
# TNF-α = assay: Local TNF-α level in the arteries of apoE-/- mice (Millipore liquid phase chip); assay type: in vivo, mouse; conditions: high-fat diet, intragastric 15 weeks, compounds 30 mg/(kg·d), simvastatin 10 mg/(kg·d), x ± s, n = 5, saline control 25.58 ± 6.44
# Procedure, shortened: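 Male apoE−/− mice on a high-fat diet (0.15% cholesterol, 21% lard) for 25 weeks received compound at 30 mg/(kg·d) intragastrically from week 10 for 15 weeks (n=5). Arterial TNF-α was then measured with a magnetic bead cytokine panel. Groups were compared by one-way ANOVA.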
# apoE−/− mice [2] = assay: Atherosclerotic plaque area to total aortic area in apoE-/- mice on high-fat diet (Sudan IV staining); assay type: in vivo, mouse; conditions: intragastric 15 weeks, compounds 30 mg/(kg·d), simvastatin 10 mg/(kg·d), x ± s, n = 5, saline control 14.67 ± 3.58
# Procedure, shortened: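 Male apoE−/− mice, 10 weeks old, ate a high-fat diet (0.15% cholesterol, 21% lard) for 25 weeks and received compounds intragastrically at 30 mg/(kg·d) for 15 weeks from week 10 (n=5). Aortas from root to abdominal bifurcation were formalin-fixed and Sudan IV-stained. Lesion area was expressed as percent of total aortic area.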
# apoE−/− mice [3] = assay: Blood lipids (LDL-C, HDL-C) in apoE-/- mice on high-fat diet; assay type: in vivo, mouse; conditions: apoE-/- mice serum, intragastric 15 weeks, compounds 30 mg/(kg·d), simvastatin 10 mg/(kg·d), x ± s; for HDL-C: n = 5, saline control 3.74 ± 0.62; for LDL-C: n = 5, saline control 7.33 ± 1.03
# Procedure, shortened: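 Male apoE−/− mice (ten weeks old) on high-fat diet (0.15% cholesterol, 21% lard) for 25 weeks; from week 10, compounds given intragastrically at 30 mg/(kg·d) for 15 weeks (n=5). Serum TC, LDL-C and HDL-C measured on an automatic biochemical analyzer; one-way ANOVA, p<0.05.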
smiles,measurement,setting,value
CCOC(=O)CCNCCC[C@](C)(OC(C)=O)C1CC[C@]2(C)[C@@H]1C(OC(C)=O)CC1[C@@]3(C)CC[C@H](OC(C)=O)C(C)(C)C3CC[C@]12C (stereo partly drawn) [Compound 25],Cell Survival Rate,RAW264.7 cells,0.98 ± 0.07
same,Foam cell formation (%),[1]; dose 10 μmol/L,62 ± 18 ^a %
same,Foam cell formation (%),[1]; dose 30 μmol/L,44 ± 15 ^a %
same,TNF-α level (ng/g),TNF-α,11.65 ± 5.45 ^a ng/g
same,Plaque area/total aorta area (%),apoE−/− mice [2],8.33 ± 2.44 ^a %
same,HDL-C,apoE−/− mice [3],5.14 ± 0.87 ^a mmol/L
same,LDL-C,apoE−/− mice [3],4.82 ± 1.54 ^a mmol/L
CCOC(=O)C(NCCCCC[C@](C)(OC(C)=O)C1CC[C@]2(C)[C@@H]1C(OC(C)=O)CC1[C@@]3(C)CC[C@H](OC(C)=O)C(C)(C)C3CC[C@]12C)C(C)OCC (stereo partly drawn) [Compound 26],Cell Survival Rate,RAW264.7 cells,0.94 ± 0.05
same,Foam cell formation (%),[1]; dose 10 μmol/L,83 ± 21%
same,Foam cell formation (%),[1]; dose 30 μmol/L,72 ± 18 ^a %
same,TNF-α level (ng/g),TNF-α,16.02 ± 3.11 ^a ng/g
same,Plaque area/total aorta area (%),apoE−/− mice [2],9.78 ± 3.17 ^a %
same,HDL-C,apoE−/− mice [3],4.45 ± 0.62 ^a mmol/L
same,LDL-C,apoE−/− mice [3],6.28 ± 0.84 mmol/L
COC(=O)[C@H](Cc1ccccc1)NCCC[C@](C)(OC(C)=O)C1CC[C@]2(C)[C@@H]1C(OC(C)=O)CC1[C@@]3(C)CC[C@H](OC(C)=O)C(C)(C)C3CC[C@]12C (stereo partly drawn) [Compound 27],Cell Survival Rate,RAW264.7 cells,0.87 ± 0.04
same,Foam cell formation (%),[1]; dose 10 μmol/L,76 ± 12 ^a %
same,Foam cell formation (%),[1]; dose 30 μmol/L,65 ± 18 ^a %
same,TNF-α level (ng/g),TNF-α,17.95 ± 2.15 ^a ng/g
same,Plaque area/total aorta area (%),apoE−/− mice [2],10.65 ± 3.82 ^a %
same,HDL-C,apoE−/− mice [3],4.37 ± 0.56 ^a mmol/L
same,LDL-C,apoE−/− mice [3],5.55 ± 1.06 ^a mmol/L
COC(=O)[C@@H](Cc1ccc(O)cc1)NCCC[C@](C)(OC(C)=O)C1CC[C@]2(C)[C@@H]1C(OC(C)=O)CC1[C@@]3(C)CC[C@H](OC(C)=O)C(C)(C)C3CC[C@]12C (stereo partly drawn) [Compound 28],Cell Survival Rate,RAW264.7 cells,0.89 ± 0.04
same,Foam cell formation (%),[1]; dose 10 μmol/L,63 ± 11 ^a %
same,Foam cell formation (%),[1]; dose 30 μmol/L,45 ± 16 ^a %
same,TNF-α level (ng/g),TNF-α,11.84 ± 2.91 ^a ng/g
same,Plaque area/total aorta area (%),apoE−/− mice [2],8.18 ± 2.89 ^a %
same,HDL-C,apoE−/− mice [3],5.55 ± 0.63 ^a mmol/L
same,LDL-C,apoE−/− mice [3],4.59 ± 1.62 ^a mmol/L
COC(=O)[C@H](Cc1c[nH]cn1)NCCC[C@](C)(OC(C)=O)C1CC[C@]2(C)[C@@H]1C(OC(C)=O)CC1[C@@]3(C)CC[C@H](OC(C)=O)C(C)(C)C3CC[C@]12C (stereo partly drawn) [Compound 29],Cell Survival Rate,RAW264.7 cells,1.00 ± 0.16
same,Foam cell formation (%),[1]; dose 10 μmol/L,85 ± 10%
same,Foam cell formation (%),[1]; dose 30 μmol/L,72 ± 18 ^a %
same,TNF-α level (ng/g),TNF-α,14.93 ± 3.67 ^a ng/g
same,Plaque area/total aorta area (%),apoE−/− mice [2],9.67 ± 2.51 ^a %
same,HDL-C,apoE−/− mice [3],4.10 ± 0.78 ^a mmol/L
same,LDL-C,apoE−/− mice [3],6.27 ± 1.59 mmol/L
COC(=O)[C@H](Cc1c[nH]c2ccccc12)NCCC[C@](C)(OC(C)=O)C1CC[C@]2(C)[C@@H]1C(OC(C)=O)CC1[C@@]3(C)CC[C@H](OC(C)=O)C(C)(C)C3CC[C@]12C (stereo partly drawn) [Compound 30],Cell Survival Rate,RAW264.7 cells,0.95 ± 0.09
same,Foam cell formation (%),[1]; dose 10 μmol/L,78 ± 12 ^a %
same,Foam cell formation (%),[1]; dose 30 μmol/L,64 ± 13 ^a %
same,TNF-α level (ng/g),TNF-α,16.11 ± 4.19 ^a ng/g
same,Plaque area/total aorta area (%),apoE−/− mice [2],9.99 ± 3.68 ^a %
same,HDL-C,apoE−/− mice [3],4.42 ± 0.57 ^a mmol/L
same,LDL-C,apoE−/− mice [3],6.37 ± 0.75 mmol/L
